Data on nine compounds can be found in patent publication US9233968B1, “Kinase inhibitors” (Allergan, Inc., priority 2014, dated 2016).

Experiment [1] addresses VEGFR2 (cytoplasmic domain KDR protein) (Homo sapiens (Human), UniProt P35968). The experiment can be described thus: VEGFR2 Kinase Assay (biochemical KDR kinase assay). Conditions: 2.7 μM ATP, poly-Glu-Tyr substrate; read-out: Enzyme VEGFR2 IC50. On the procedure: Biochemical KDR kinase assays were performed in 96 well microtiter plates that were coated overnight with 75 μg/well of poly-Glu-Tyr (4:1) in 10 mM Phosphate Buffered Saline (PBS), pH 7.4. The coated plates were washed with 2 mls per well PBS+0.05% Tween-20 (PBS-T), blocked by incubation with PBS containing 1% BSA, then washed with 2 mls per well PBS-T prior to starting the reaction. Reactions were carried out in 100 μL reaction volumes containing 2.7 μM ATP in kinase buffer (50 mM Hepes buffer pH 7.4, 20 mM MgCl2, 0.1 mM MnCl2 and 0.2 mM Na3VO4). […] Reactions were initiated by the addition 20 μl per well of kinase buffer containing 200-300 ng purified cytoplasmic domain KDR protein (BPS Bioscience, San Diego, Calif.). Following a 15 minute incubation at 30° C., the reactions were washed 2 mls per well PBS-T. 100 μl of a monoclonal anti-phosphotyrosine antibody-peroxidase conjugate diluted 1:10,000 in PBS-T was added to the wells for 30 minutes. Following a 2 mls per well wash with PBS-Tween-20, 100 μl of O-Phenylenediamine Dihydrochloride in phosphate-citrate buffer, containing urea hydrogen peroxide, was added to the wells for 7-10 minutes as a colorimetric substrate for the peroxidase. The reaction was terminated by the addition of 100 μl of 2.5N H2SO4 to each well and read using a microplate ELISA reader set at 492 nm. IC50 values for compound inhibition were calculated directly from graphs of optical density (arbitrary units) versus compound concentration following subtraction of blank values.

The target in another experiment is PDGFRβ (Homo sapiens (Human), UniProt P09619). Put plainly: PDGFRβ Cellular Assay (FLIPR, PDGF-induced intracellular calcium in NHDF-Ad). Conditions: PDGF-BB stimulation 30 ng/mL, read-out: Receptor PDGFRβ IC50. Format: cell-based. On the procedure:
(§1) Automated FLIPR (Fluorometric Imaging Plate Reader) technology was used to screen for inhibitors of PDGF-induced increases in intracellular calcium levels in fluorescent dye loaded endothelial cells. NHDF-Ad (Normal Human Dermal Fibroblasts, Adult; Lonza) were seeded in 384-well fibronectin coated black-walled plates overnight at 37° C./5% CO2. Cells were loaded with calcium indicator Fluo-4 for 45 minutes at 37° C. Cells were washed 2 times (Elx405, Biotek Instruments) to remove extracellular dye. For screening, cells were pre-incubated with test agents for 30 minutes, at a single concentration (10 μM) or at concentrations ranging from 0.0001 to 10.0 μM followed by PDGF-BB stimulation (30 ng/mL). […] Data were generated by determining max-min fluorescence levels for unstimulated, stimulated, and drug treated samples. IC50 values for test compounds were calculated from % inhibition of PDGF-BB stimulated responses in the absence of inhibitor.
In general terms: A change in cytosolic calcium serves as a functional read-out for many receptors and channels.

In a further experiment the target is VEGFR2 (Homo sapiens (Human), UniProt P35968). Put plainly: VEGFR2 Cellular Assay (FLIPR, VEGF induced intracellular calcium in HUVEC). Format: cell-based. Conditions: VEGF165 stimulation 10 ng/mL, read-out: Receptor VEGFR2 IC50. On the procedure: as §1, with “VEGFR2 Cellular Assay Automated” for “Automated”, “of VEGF induced” for “of PDGF-induced”, “cells. HUVEC (human umbilical vein endothelial cells) (Clonetics)” for “cells. NHDF-Ad (Normal Human Dermal Fibroblasts, Adult; Lonza)”, “by VEGF165” for “by PDGF-BB”, “stimulation (10” for “stimulation (30”, “of VEGF” for “of PDGF-BB”
Chain of VEGFR2 (P35968 20-1356): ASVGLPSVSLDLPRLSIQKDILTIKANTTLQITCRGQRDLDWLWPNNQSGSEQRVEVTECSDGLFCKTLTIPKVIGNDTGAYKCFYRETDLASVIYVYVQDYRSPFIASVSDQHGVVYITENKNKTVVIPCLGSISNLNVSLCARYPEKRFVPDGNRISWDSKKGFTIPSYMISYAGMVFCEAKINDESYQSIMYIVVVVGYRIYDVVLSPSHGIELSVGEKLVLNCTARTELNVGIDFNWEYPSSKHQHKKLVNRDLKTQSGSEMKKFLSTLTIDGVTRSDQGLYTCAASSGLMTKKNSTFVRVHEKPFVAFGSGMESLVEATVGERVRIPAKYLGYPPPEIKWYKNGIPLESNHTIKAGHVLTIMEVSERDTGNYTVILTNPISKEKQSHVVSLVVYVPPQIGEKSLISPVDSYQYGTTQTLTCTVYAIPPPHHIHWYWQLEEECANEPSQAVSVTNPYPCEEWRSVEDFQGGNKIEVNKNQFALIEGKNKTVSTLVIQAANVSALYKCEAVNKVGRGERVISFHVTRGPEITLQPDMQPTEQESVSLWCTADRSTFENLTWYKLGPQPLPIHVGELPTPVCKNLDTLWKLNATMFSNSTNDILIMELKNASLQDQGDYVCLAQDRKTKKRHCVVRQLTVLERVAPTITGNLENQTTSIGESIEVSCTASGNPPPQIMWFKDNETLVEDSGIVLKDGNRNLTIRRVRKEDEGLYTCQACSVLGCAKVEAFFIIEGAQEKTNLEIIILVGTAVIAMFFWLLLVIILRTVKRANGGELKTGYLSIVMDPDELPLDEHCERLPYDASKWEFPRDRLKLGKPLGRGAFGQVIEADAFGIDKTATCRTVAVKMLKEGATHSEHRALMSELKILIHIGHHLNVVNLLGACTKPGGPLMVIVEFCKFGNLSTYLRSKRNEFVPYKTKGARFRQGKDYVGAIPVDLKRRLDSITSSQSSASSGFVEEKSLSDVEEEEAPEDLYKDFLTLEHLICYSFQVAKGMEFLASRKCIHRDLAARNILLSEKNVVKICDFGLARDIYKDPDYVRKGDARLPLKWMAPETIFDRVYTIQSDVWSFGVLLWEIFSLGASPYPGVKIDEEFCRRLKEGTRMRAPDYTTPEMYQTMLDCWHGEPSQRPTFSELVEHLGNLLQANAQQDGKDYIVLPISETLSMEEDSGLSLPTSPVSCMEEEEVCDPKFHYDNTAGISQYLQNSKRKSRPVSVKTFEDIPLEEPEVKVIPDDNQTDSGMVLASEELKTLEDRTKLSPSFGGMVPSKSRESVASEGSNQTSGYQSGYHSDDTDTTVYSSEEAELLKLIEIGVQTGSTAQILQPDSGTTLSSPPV

The target in experiment [2] is PDGFRβ (cytoplasmic domain PDGFR-b protein) (Homo sapiens (Human), UniProt P09619). The experiment can be described thus: PDGFRβ Kinase Assay. Format: biochemical. To be noted: 36 μM ATP, poly-Glu-Tyr substrate; read-out: Enzyme PDGFRβ IC50. On the procedure:
Biochemical PDGFRβ kinase assays were performed in 96 well microtiter plates that were coated overnight with 75 μg of poly-Glu-Tyr (4:1) in 10 mM Phosphate Buffered Saline (PBS), pH 7.4. The coated plates were washed with 2 mls per well PBS+0.05% Tween-20 (PBS-T), blocked by incubation with PBS containing 1% BSA, then washed with 2 mls per well PBS-T prior to starting the reaction. […] Reactions were initiated by the addition 20 μl per well of kinase buffer containing 200-300 ng purified cytoplasmic domain PDGFR-b protein (Millipore). Following a 60 minute incubation at 30° C., the reactions were washed 2 mls per well PBS-T. 100 μl of a monoclonal anti-phosphotyrosine antibody-peroxidase conjugate diluted 1:10,000 in PBS-T was added to the wells for 30 minutes. Following a 2 mls per well wash with PBS-Tween-20, 100 μl of O-Phenylenediamine Dihydrochloride in phosphate-citrate buffer, containing urea hydrogen peroxide, was added to the wells for 7-10 minutes as a colorimetric substrate for the peroxidase. […] IC50 values for compound inhibition were calculated directly from graphs of optical density (arbitrary units) versus compound concentration following subtraction of blank values.

Molecules are shown by their SMILES. A value given as a limit tells only on which side of the number the result lay.

Chain of VEGFR2 (cytoplasmic domain KDR protein) (P35968 786-1356): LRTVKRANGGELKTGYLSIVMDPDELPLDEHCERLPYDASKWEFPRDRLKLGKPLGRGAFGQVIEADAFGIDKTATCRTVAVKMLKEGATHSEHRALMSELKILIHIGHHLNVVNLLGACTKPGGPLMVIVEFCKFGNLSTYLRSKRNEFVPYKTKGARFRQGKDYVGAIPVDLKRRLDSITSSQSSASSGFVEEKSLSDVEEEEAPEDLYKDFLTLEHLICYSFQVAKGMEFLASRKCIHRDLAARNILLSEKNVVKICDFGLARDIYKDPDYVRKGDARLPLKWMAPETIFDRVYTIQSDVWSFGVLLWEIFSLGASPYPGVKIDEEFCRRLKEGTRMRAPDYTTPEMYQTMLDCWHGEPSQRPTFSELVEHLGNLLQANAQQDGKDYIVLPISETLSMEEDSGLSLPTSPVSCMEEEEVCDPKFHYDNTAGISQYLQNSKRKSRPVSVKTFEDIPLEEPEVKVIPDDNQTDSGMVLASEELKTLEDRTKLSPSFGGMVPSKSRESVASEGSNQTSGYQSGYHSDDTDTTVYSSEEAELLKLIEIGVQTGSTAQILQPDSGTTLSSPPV
Chain of PDGFRβ (cytoplasmic domain PDGFR-b protein) (P09619 554-1106): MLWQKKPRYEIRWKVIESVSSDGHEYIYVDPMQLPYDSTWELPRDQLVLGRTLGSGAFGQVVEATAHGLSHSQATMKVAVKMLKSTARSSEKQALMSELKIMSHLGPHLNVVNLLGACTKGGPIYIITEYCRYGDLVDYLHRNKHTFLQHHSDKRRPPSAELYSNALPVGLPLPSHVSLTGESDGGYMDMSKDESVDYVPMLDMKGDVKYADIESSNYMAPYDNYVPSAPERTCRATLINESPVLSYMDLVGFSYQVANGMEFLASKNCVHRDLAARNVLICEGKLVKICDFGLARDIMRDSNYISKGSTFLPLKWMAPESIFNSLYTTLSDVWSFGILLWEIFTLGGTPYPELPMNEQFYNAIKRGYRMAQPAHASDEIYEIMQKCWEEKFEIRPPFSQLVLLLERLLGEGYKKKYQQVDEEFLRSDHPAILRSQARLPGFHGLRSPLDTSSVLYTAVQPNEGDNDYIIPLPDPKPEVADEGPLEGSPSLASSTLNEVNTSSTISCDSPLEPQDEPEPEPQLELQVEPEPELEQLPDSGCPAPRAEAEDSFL
Chain of PDGFRβ (P09619 33-1106): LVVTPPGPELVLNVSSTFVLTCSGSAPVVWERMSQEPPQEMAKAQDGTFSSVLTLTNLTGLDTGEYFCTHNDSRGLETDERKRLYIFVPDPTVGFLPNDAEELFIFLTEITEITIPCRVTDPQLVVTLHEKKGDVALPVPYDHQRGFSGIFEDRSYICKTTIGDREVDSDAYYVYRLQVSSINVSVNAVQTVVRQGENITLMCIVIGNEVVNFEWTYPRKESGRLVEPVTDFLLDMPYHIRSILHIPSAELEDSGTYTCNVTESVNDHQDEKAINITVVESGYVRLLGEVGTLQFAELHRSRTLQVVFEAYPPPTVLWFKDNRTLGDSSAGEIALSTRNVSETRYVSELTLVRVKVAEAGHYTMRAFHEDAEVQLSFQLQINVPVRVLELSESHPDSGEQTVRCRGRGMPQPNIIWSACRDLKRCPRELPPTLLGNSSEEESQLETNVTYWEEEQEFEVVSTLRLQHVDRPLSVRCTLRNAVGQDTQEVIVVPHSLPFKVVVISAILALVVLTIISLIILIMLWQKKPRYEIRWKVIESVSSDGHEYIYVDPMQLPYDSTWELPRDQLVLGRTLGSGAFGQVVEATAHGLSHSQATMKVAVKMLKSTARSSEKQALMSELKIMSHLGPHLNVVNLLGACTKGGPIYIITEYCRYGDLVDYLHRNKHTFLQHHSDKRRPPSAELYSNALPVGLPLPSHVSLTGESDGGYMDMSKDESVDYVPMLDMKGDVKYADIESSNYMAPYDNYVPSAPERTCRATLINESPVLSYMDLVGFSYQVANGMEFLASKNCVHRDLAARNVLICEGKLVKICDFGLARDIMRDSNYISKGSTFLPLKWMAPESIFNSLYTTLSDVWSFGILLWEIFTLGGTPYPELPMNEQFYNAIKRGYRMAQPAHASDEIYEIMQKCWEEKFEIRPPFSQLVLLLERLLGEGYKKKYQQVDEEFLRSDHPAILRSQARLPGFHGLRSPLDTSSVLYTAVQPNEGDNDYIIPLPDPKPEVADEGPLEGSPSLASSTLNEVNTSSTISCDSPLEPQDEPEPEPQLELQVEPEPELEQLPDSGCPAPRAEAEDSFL

Usually IC50 stands for the concentration at which inhibition is half-maximal. For the compound `Cc1ccc(F)c(C(=O)Nc2cccc(C#Cc3ccc4nc(N)cn4n3)c2)c1` [Example 21, N-{3-[(2-aminoimidazo[1,2-b]pyridazin-6-yl)ethynyl]phenyl}-2-fluoro-5-methylbenzamide], the IC50 was 88 nM in experiment [1], 371 nM at PDGFRβ, 1120 nM on VEGFR2 and 767 nM in experiment [2].
Consider `Cc1cccc(NC(=O)Nc2ccc(C#Cc3ccc4nc(N)cn4n3)cc2)c1` [Example 1, 1-{4-[(2-aminoimidazo[1,2-b]pyridazin-6-yl)ethynyl]phenyl}-3-(3-methylphenyl)urea], for which the IC50 in experiment [1] is 20 nM; on PDGFRβ, 227 nM; on VEGFR2 it was 51 nM; in experiment [2], 34 nM.
Consider `O=C(Nc1ccc(C#Cc2ccc3nccn3n2)cc1)Nc1cccc(C(F)(F)F)c1` [Example 2, 1-[4-(imidazo[1,2-b]pyridazin-6-ylethynyl)phenyl]-3-[3-(trifluoromethyl)phenyl]urea], for which the IC50 came to 47 nM in experiment [1], 457 nM on PDGFRβ, 962 nM at VEGFR2 and 32 nM in experiment [2].
In the same order, the values of `O=C(Nc1ccc(C#Cc2ccc3nc(NC(=O)Nc4cc(C(F)(F)F)ccc4F)cn3n2)cc1)Nc1cc(C(F)(F)F)ccc1F` [Example 10, 1-[2-fluoro-5-(trifluoromethyl)phenyl]-3-[4-({2-[({[2-fluoro-5-(trifluoromethyl)phenyl]amino}carbonyl)amino]imidazo[1,2-b]pyridazin-6-yl}ethynyl)phenyl]urea] are 1430 nM, more than 10000 nM, more than 10000 nM and more than 10000 nM.
In the same order, the values of `Nc1cn2nc(C#Cc3ccc(NC(=O)c4ccccc4)cc3)ccc2n1` [Example 19, N-{4-[(2-aminoimidazo[1,2-b]pyridazin-6-yl)ethynyl]phenyl}benzamide] are 1250 nM, more than 10000 nM, more than 10000 nM and more than 10000 nM.
In the same order, the values of `Nc1ccc(C#Cc2ccc3nc(NC(=O)Nc4ccc(F)c(Cl)c4)cn3n2)cc1` [Example 14, 1-{6-[(4-aminophenyl)ethynyl]imidazo[1,2-b]pyridazin-2-yl}-3-(3-chloro-4-fluorophenyl)urea] are 1690 nM, 10500 nM, more than 10000 nM and 6570 nM.
As for `O=C(Nc1cccc(C#Cc2ccc3nccn3n2)c1)c1ccc(F)c(Cl)c1` [Example 24, 3-chloro-4-fluoro-N-[3-(imidazo[1,2-b]pyridazin-6-ylethynyl)phenyl]benzamide], the IC50 in experiment [1] was found to be 464 nM; on PDGFRβ, 2680 nM; on VEGFR2, 1460 nM; in experiment [2], 938 nM.
`Cc1ccc(F)c(C(=O)Nc2ccc(C#Cc3ccc4nc(N)cn4n3)cc2)c1` [Example 20, N-{4-[(2-aminoimidazo[1,2-b]pyridazin-6-yl)ethynyl]phenyl}-2-fluoro-5-methylbenzamide]: the IC50 was more than 10000 nM in experiment [1], more than 10000 nM on PDGFRβ, 4400 nM at VEGFR2 and more than 10000 nM in experiment [2].
Regarding `Nc1cn2nc(C#Cc3ccc(NC(=O)Nc4cc(C(F)(F)F)ccc4F)cc3)ccc2n1` [Example 4, 1-{4-[(2-aminoimidazo[1,2-b]pyridazin-6-yl)ethynyl]phenyl}-3-[2-fluoro-5-(trifluoromethyl)phenyl]urea], the half-inhibitory concentration (IC50) amounted to 73 nM in experiment [1], 516 nM on PDGFRβ, 423 nM at VEGFR2 and 55 nM in experiment [2].
